The values that follow are results of earlier work, collected in patent publication US9642862B2, “Methods for treating chronic or unresolvable pain and/or increasing the pain threshold in a subject and pharmaceutical compositions for use therein” (White Mountain Pharma, Inc., priority 2010, dated 2017).

In series [1] the test system is rats. Conditions: formalin test, treatment with testosterone.
For series [2], the system named is chronic pain subjects. Conditions: four subjects, adjunctive to primary opioid therapy, anecdotal.
Series [3] concerns female-to-male transsexuals. Conditions: doses at or above the male reference range.
The subject of series [4] is ovariectomized female rats.

For `C[C@]12CC[C@H]3[C@@H](CCC4=CC(=O)CC[C@@]43C)[C@@H]1CC[C@@H]2O` [testosterone], the pain responses entry in series [1] is given as “decreased”. Besides, in series [2], the quality of life entry was “improved”. Also, the side effects entry in series [3] is “develop hirsutism and male-like increased risk for cardiovascular disease and diabetes”.
For estrogen, in series [4], the “spinal cord enkephalin transcription” value is “increase”.
